The target of data set [1] is T1, fatty acid amide hydrolase (FAAH), rat brain homogenate (Rattus norvegicus, UniProt P97612).
T1 sequence (P97612 1-579): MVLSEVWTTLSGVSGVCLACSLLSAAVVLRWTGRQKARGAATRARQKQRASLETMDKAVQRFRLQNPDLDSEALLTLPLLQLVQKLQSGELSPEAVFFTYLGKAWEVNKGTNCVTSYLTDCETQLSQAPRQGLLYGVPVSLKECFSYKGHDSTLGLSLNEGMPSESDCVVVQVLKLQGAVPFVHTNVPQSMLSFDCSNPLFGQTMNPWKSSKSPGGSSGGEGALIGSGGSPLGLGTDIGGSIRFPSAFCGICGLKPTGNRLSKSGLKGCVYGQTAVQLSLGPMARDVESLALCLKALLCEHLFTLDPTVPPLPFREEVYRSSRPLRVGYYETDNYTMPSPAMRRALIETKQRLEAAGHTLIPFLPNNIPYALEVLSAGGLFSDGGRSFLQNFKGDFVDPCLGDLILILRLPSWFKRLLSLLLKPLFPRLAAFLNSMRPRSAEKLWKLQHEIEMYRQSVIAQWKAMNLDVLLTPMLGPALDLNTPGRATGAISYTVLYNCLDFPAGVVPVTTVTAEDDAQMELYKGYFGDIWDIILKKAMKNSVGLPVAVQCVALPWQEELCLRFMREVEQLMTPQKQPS
The data set is classed as biochemical. The settings on record: for FAAH inhibition at 10 μM: highest test concentration; for inhibition at 10 µM: read-out: FAAH inhibition at 10 μM, 10 μM, highest test concentration.

A short description of data set [2]: Chemical stability in aqueous solution. In kind it is physicochemical. The settings on record: percent of parent remaining after 60 min at 37 °C; mean ± SD, n=3.
Data set [3] can be described thus: Metabolic stability in porcine liver S9 fraction. The data set is classed as in vitro ADME. The settings on record: for Porcine liver S9 fraction Stability: percent of parent remaining after 30 min at 37 °C, mean ± SD, n=3.
A short description of data set [4]: Metabolic stability in porcine blood plasma. The data set is classed as in vitro ADME.

What is called IC50 is the concentration at which inhibition is half-maximal. Higher therefore signals lower potency.

Consider `O=C(OC(C(F)(F)F)C(F)(F)F)N1CCC(Cn2ccc3ccccc32)CC1` [Compound 45], for which the “FAAH inhibition at 10 μM” value in data set [1] is recorded as “no inhibitory activity”.

In turn, `O=C(OC(C(F)(F)F)C(F)(F)F)N1CCC(CCn2ccc3cccc(F)c32)CC1` [Compound 75] had an IC50 in data set [1] of 1.2 µM.

Consider `O=C(OC(C(F)(F)F)C(F)(F)F)N1CCC(Cn2ccc3c(F)cccc32)CC1` [Compound 48], for which the “FAAH inhibition at 10 μM” value in data set [1] was “no inhibitory activity”.

For `O=C(OC(C(F)(F)F)C(F)(F)F)N1CCC(CCn2nnc3ccccc32)CC1` [Compound 104], the half-maximal inhibitory concentration (IC50) in data set [1] is over 10 µM.

Take `NC(=O)c1cccc(-c2cccc(OC(=O)NC3CCCCC3)c2)c1` [URB597, reference compound]: the “PBS‐buffer pH 7.4 Stability” value in data set [2] is on record as over 95%. The “Porcine liver S9 fraction Stability” value in data set [3] came out at 80±4%.

Take `O=C(OC(C(F)(F)F)C(F)(F)F)N1CCC(CCCn2ccc3ccc(F)cc32)CC1` [Compound 28]: the IC50 in data set [1] was 6.3 µM.

For the molecule `N#Cc1ccc2c(ccn2CC2CCN(C(=O)OC(C(F)(F)F)C(F)(F)F)CC2)c1` [Compound 63], in data set [1], the IC50 is over 10 µM and the inhibition at 10 µM was about 25%.

`O=C(OC(C(F)(F)F)C(F)(F)F)N1CCC(CCn2ccc3cc(F)ccc32)CC1` [Compound 72] had an IC50 in data set [1] of 2.8 µM.

In the case of `COc1ccc2c(ccn2CC2CCN(C(=O)OC(C(F)(F)F)C(F)(F)F)CC2)c1` [Compound 60], in data set [1], the IC50 is over 10 µM and the inhibition at 10 µM was about 25%.

For the molecule `O=C(OC(C(F)(F)F)C(F)(F)F)N1CCC(CCn2ccc3ccccc32)CC1` [Compound 66], in data set [1], the midpoint of inhibition, the IC50, lay at 2.1 µM.

In the case of `O=C(OC(C(F)(F)F)C(F)(F)F)N1CCC(Cn2ccc3ccc(F)cc32)CC1` [Compound 20, 1,1,1,3,3,3‐Hexafluoropropan‐2‐yl 4‐[(6‐fluoroindol‐1‐yl)methyl]piperidine‐1‐carboxylate], the “PBS‐buffer pH 7.4 Stability” value in data set [2] was over 95%. Also, in data set [4] (percent of parent remaining after 30 min at 37 °C, mean ± SD, n=3), the “Porcine blood plasma Stability” value is listed as 82±6%. Also, the “FAAH inhibition at 10 μM” value in data set [1] is “no inhibitory activity”. Also, the “Porcine liver S9 fraction Stability” value in data set [3] came to 75±3%.

In data set [1], `O=C(OC(C(F)(F)F)C(F)(F)F)N1CCC(CCn2ccc3c(F)cccc32)CC1` [Compound 69] registered an IC50 of 2.5 µM.

`O=C(OC(C(F)(F)F)C(F)(F)F)N1CCC(CCCCn2ccc3ccc(F)cc32)CC1` [Compound 32] registered an IC50 in data set [1] of 2.8 µM.

As for `O=C(OC(C(F)(F)F)C(F)(F)F)N1CCC(CCn2ccc3cc(Cl)ccc32)CC1` [Compound 78], the IC50 in data set [1] worked out at 7.5 µM.

As for `CCCc1nc(C(C)(C)O)c(C(=O)OCc2oc(=O)oc2C)n1Cc1ccc(-c2ccccc2-c2nnn[nH]2)cc1` [olmesartan medoxomil, reference compound], the “Hydrolysis in porcine blood plasma” value in data set [4] (under the conditions of the stability assay) is reported as “almost quantitatively hydrolyzed”.

Consider `O=C(OC(C(F)(F)F)C(F)(F)F)N1CCC(Cn2cnc3ccccc32)CC1` [Compound 122], for which the “FAAH inhibition at 10 μM” value in data set [1] is listed as “ineffective”.

In data set [1], `Cc1ccc2c(ccn2CCC2CCN(C(=O)OC(C(F)(F)F)C(F)(F)F)CC2)c1` [Compound 81] registered an IC50 of over 10 µM.

Consider `O=C(OC(C(F)(F)F)C(F)(F)F)N1CCC(Cn2ccc3cccc(F)c32)CC1` [Compound 54], for which the “FAAH inhibition at 10 μM” value in data set [1] was “no inhibitory activity”.

For the molecule `O=C(NCCCCCCCn1ccc2ccc(F)cc21)OC(C(F)(F)F)C(F)(F)F` [Compound 15], half-maximal inhibition in data set [1] (IC50) required 1 µM.

`N#Cc1ccc2c(ccn2CCC2CCN(C(=O)OC(C(F)(F)F)C(F)(F)F)CC2)c1` [Compound 87]: the IC50 in data set [1] is over 10 µM.

Turning to `CCOC(=O)C1=C[C@@H](OC(CC)CC)[C@H](NC(C)=O)[C@@H](N)C1` [oseltamivir, reference compound], in data set [3] (percent degraded under the conditions of the stability assay), the “Degradation in porcine liver homogenate” value is “approximately 90%”.

Regarding `Cc1ccc2c(ccn2CC2CCN(C(=O)OC(C(F)(F)F)C(F)(F)F)CC2)c1` [Compound 57], in data set [1], the IC50 was over 10 µM and the inhibition at 10 µM was about 25%.

In turn, `COc1ccc2c(ccn2CCC2CCN(C(=O)OC(C(F)(F)F)C(F)(F)F)CC2)c1` [Compound 84] gave an IC50 in data set [1] of 8.3 µM.

The values above are taken from article PMC9303458 (Chemmedchem, 2022).
